This passage reports logP results from the OPERA property sets (Mansouri et al. 2018).

Broadly, the logP is the decadic logarithm of the partition coefficient of the neutral form, usually between octanol and water. Read a low logP as lower lipophilicity.

Turning to `CCCOC1(c2ccccc2)CN(C)CCO1` (centres undefined), the logP was 2.13.

`C=CCOC1(c2ccccc2)CN(C)CCO1` (centres undefined) gave a logP of 2.09.

`CN1CCOC(O)(c2ccc(Br)cc2)C1` (centres undefined): the logP was 1.57.

On to `CN1CCOC(O)(c2ccccc2)C1` (centres undefined), for which the logP is 1.54.

Turning to `CCOC1(c2ccccc2)OCCN(C)C1C` (centres undefined), the log partition coefficient (logP) was found to be 2.27.

`CC1CN(C)CC(O)(c2ccccc2)O1` (centres undefined) came in with a logP of 1.79.

Take `CC1C(c2ccccc2)OC(O)(c2ccccc2)CN1C` (centres undefined): the logP turned out to be 1.87. This logP and that of the molecule before are within 0.2 log units of each other.

For the molecule `CC1N(C)CCOC1(O)c1ccccc1` (centres undefined), the logP was determined as 1.92.

Molecule `CN1CCOC(O)C1c1ccccc1` (centres undefined) came in with a logP of 0.99.

The molecule `CCCCOC1(c2ccccc2)CN(C)CCO1` (centres undefined) had a logP of 2.23.

`CN1CCOC(O)(c2cccc(C(F)(F)F)c2)C1` (centres undefined) returned a logP of 1.39.

In turn, `CC(C)COC1(c2ccccc2)CN(C)CCO1` (centres undefined) showed a logP of 2.17.

In turn, `CCOC1(c2ccccc2)CN(C)CC(C)O1` (centres undefined) came in with a lipophilicity (logP) of 2.23.

On to `C#CCOC1(c2ccccc2)CN(C)CCO1` (centres undefined), for which the lipophilicity (logP) was found to be 1.87.
